From patent US20210045385A1, “PYRIDAZINONE-SUBSTITUTED KETOXIMES AS HERBICIDES” (FMC Corporation, priority 2018, published 2021)

Legend:
Assay type in all cases: in vivo
[1] = test system: Italian ryegrass (Lolium multiflorum); assay: Test A preemergence, visual plant response rating; details: for Ryegrass, Italian plant response rating: 125 g ai/ha, preemergence, 0 to 100 scale, 0 no effect, 100 complete control; for Ryegrass, Italian plant response rating (0 to 100 scale): 500 g ai/ha Preemergence, approx. 10 days
Summary of the method: (§1)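 Greenhouse evaluation, approx. 10 days post-spray. Soil: loam + sand. Postemergence stage: 1–2 leaves, height 2–10 cm. Vehicle: non-phytotoxic solvent blend with surfactant. Score: visual injury on a 0 (no effect) to 100 (complete control) scale.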

[2] = test system: barnyardgrass (Echinochloa crus-galli); assay: Test A preemergence, visual plant response rating; details: for Barnyardgrass plant response rating: 125 g ai/ha, preemergence, 0 to 100 scale, 0 no effect, 100 complete control; for Barnyardgrass plant response rating (0 to 100 scale): 500 g ai/ha Preemergence, approx. 10 days
Summary of the method: as §1

[3] = test system: foxtail, giant (giant foxtail, Setaria faberii); assay: Test A preemergence, visual plant response rating; details: for Foxtail, Giant plant response rating: 125 g ai/ha, preemergence, 0 to 100 scale, 0 no effect, 100 complete control; for Foxtail, Giant plant response rating (0 to 100 scale): 500 g ai/ha Preemergence, approx. 10 days
Summary of the method: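 Preemergence: seeds in loam/sand blend given directed soil spray of compound in non-phytotoxic solvent with surfactant. Postemergence: plants 2–10 cm, one- to two-leaf stage, sprayed with same formulation. Visual injury rated vs untreated controls after ~10 days in greenhouse, 0 (no effect) to 100 (complete control).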

[4] = test system: kochia (Kochia scoparia); assay: Test A preemergence, visual plant response rating; details: for Kochia plant response rating: 125 g ai/ha, preemergence, 0 to 100 scale, 0 no effect, 100 complete control; for Kochia plant response rating (0 to 100 scale): 500 g ai/ha Preemergence, approx. 10 days
Summary of the method: as §1

[5] = test system: pigweed (Amaranthus retroflexus); assay: Test A preemergence, visual plant response rating; details: for Pigweed plant response rating: 125 g ai/ha, preemergence, 0 to 100 scale, 0 no effect, 100 complete control; for Pigweed plant response rating (0 to 100 scale): 500 g ai/ha Preemergence, approx. 10 days
Summary of the method: as §1

[6] = test system: ragweed (common ragweed, Ambrosia elatior); assay: Test A preemergence, visual plant response rating; details: for Ragweed plant response rating: 125 g ai/ha, preemergence, 0 to 100 scale, 0 no effect, 100 complete control; for Ragweed plant response rating (0 to 100 scale): 500 g ai/ha Preemergence, approx. 10 days
Summary of the method: as §1

[7] = test system: Italian ryegrass (Lolium multiflorum); assay: Test A postemergence, visual plant response rating; details: for Ryegrass, Italian plant response rating (0 to 100 scale): 500 g ai/ha, postemergence, 0 is no effect, 100 is complete control; for Ryegrass, Italian plant response rating: Postemergence, 125 g ai/ha, 0 to 100 scale (0 no effect, 100 complete control)
Summary of the method: as §1

[8] = test system: barnyardgrass (Echinochloa crus-galli); assay: Test A postemergence, visual plant response rating; details: for Barnyardgrass plant response rating (0 to 100 scale): 500 g ai/ha, postemergence, 0 is no effect, 100 is complete control; for Barnyardgrass plant response rating: Postemergence, 125 g ai/ha, 0 to 100 scale (0 no effect, 100 complete control)
Summary of the method: as §1

[9] = test system: blackgrass (Alopecurus myosuroides); assay: Test A postemergence, visual plant response rating; details: for Blackgrass plant response rating (0 to 100 scale): 500 g ai/ha, postemergence, 0 is no effect, 100 is complete control; for Blackgrass plant response rating: Postemergence, 125 g ai/ha, 0 to 100 scale (0 no effect, 100 complete control)
Summary of the method: as §1

[10] = test system: corn (Zea mays); assay: Test A postemergence, visual plant response rating; details: for Corn plant response rating (0 to 100 scale): 500 g ai/ha, postemergence, 0 is no effect, 100 is complete control; for Corn plant response rating: Postemergence, 125 g ai/ha, 0 to 100 scale (0 no effect, 100 complete control)
Summary of the method: as §1

[11] = test system: foxtail, giant (giant foxtail, Setaria faberii); assay: Test A postemergence, visual plant response rating; details: for Foxtail, Giant plant response rating (0 to 100 scale): 500 g ai/ha, postemergence, 0 is no effect, 100 is complete control; for Foxtail, Giant plant response rating: Postemergence, 125 g ai/ha, 0 to 100 scale (0 no effect, 100 complete control)
Summary of the method: as §1

[12] = test system: galium (catchweed bedstraw, Galium aparine); assay: Test A postemergence, visual plant response rating; details: for Galium plant response rating (0 to 100 scale): 500 g ai/ha, postemergence, 0 is no effect, 100 is complete control; for Galium plant response rating: Postemergence, 125 g ai/ha, 0 to 100 scale (0 no effect, 100 complete control)
Summary of the method: as §1

[13] = test system: kochia (Kochia scoparia); assay: Test A postemergence, visual plant response rating; details: for Kochia plant response rating (0 to 100 scale): 500 g ai/ha, postemergence, 0 is no effect, 100 is complete control; for Kochia plant response rating: Postemergence, 125 g ai/ha, 0 to 100 scale (0 no effect, 100 complete control)
Summary of the method: as §1

[14] = test system: pigweed (Amaranthus retroflexus); assay: Test A postemergence, visual plant response rating; details: for Pigweed plant response rating (0 to 100 scale): 500 g ai/ha, postemergence, 0 is no effect, 100 is complete control; for Pigweed plant response rating: Postemergence, 125 g ai/ha, 0 to 100 scale (0 no effect, 100 complete control)
Summary of the method: as §1

[15] = test system: ragweed (common ragweed, Ambrosia elatior); assay: Test A postemergence, visual plant response rating; details: for Ragweed plant response rating (0 to 100 scale): 500 g ai/ha, postemergence, 0 is no effect, 100 is complete control; for Ragweed plant response rating: Postemergence, 125 g ai/ha, 0 to 100 scale (0 no effect, 100 complete control)
Summary of the method: as §1

[16] = test system: wheat (Triticum aestivum); assay: Test A postemergence, visual plant response rating; details: for Wheat plant response rating (0 to 100 scale): 500 g ai/ha, postemergence, 0 is no effect, 100 is complete control; for Wheat plant response rating: Postemergence, 125 g ai/ha, 0 to 100 scale (0 no effect, 100 complete control)
Summary of the method: as §1

[17] = test system: barnyardgrass (Echinochloa crus-galli); assay: Test B flooded paddy test, visual plant response rating; details: 250 g ai/ha, Flood, applied to paddy water, 2-leaf stage, evaluated after 13 to 15 days
Summary of the method: (§2)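 Rice, umbrella sedge, ducksalad and barnyardgrass grown to 2-leaf stage; pots flooded 3 cm above soil and compound applied directly to paddy water, depth maintained.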

[18] = test system: ducksalad (Heteranhera limosa); assay: as above; details: 250 g ai/ha, Flood, applied to paddy water, 2-leaf stage, evaluated after 13 to 15 days
Summary of the method: as §2

[19] = test system: rice (Oryza sativa); assay: as above; details: 250 g ai/ha, Flood, applied to paddy water, 2-leaf stage, evaluated after 13 to 15 days
Summary of the method: as §2

[20] = test system: sedge, umbrella (small-flower umbrella sedge, Cyperus difformis); assay: as above; details: 250 g ai/ha, Flood, applied to paddy water, 2-leaf stage, evaluated after 13 to 15 days
Summary of the method: as §2

Row | SMILES | Ryegrass, Italian plant response rating [1] | Ryegrass, Italian plant response rating (0 to 100 scale) [1] | Barnyardgrass plant response rating [2] | Barnyardgrass plant response rating (0 to 100 scale) [2] | Foxtail, Giant plant response rating [3] | Foxtail, Giant plant response rating (0 to 100 scale) [3] | Kochia plant response rating [4] | Kochia plant response rating (0 to 100 scale) [4] | Pigweed plant response rating [5] | Pigweed plant response rating (0 to 100 scale) [5] | Ragweed plant response rating [6] | Ragweed plant response rating (0 to 100 scale) [6] | Ryegrass, Italian plant response rating (0 to 100 scale) [7] | Ryegrass, Italian plant response rating [7] | Barnyardgrass plant response rating (0 to 100 scale) [8] | Barnyardgrass plant response rating [8] | Blackgrass plant response rating (0 to 100 scale) [9] | Blackgrass plant response rating [9] | Corn plant response rating (0 to 100 scale) [10] | Corn plant response rating [10] | further results
1 | CON=C(c1cccc(C)c1F)c1c(O)c(C)nn(C)c1=O [Compound 70] | 0 | 10 | 0 | 10 | 0 | 10 | 0 | 50 | 0 | 40 | 70 | 80 | 70 | 0 | 30 | 0 | 30 | 0 | 0 | 0 | Foxtail, Giant plant response rating (0 to 100 scale) [11]: 40; Foxtail, Giant plant response rating [11]: 0; Galium plant response rating (0 to 100 scale) [12]: 80; Galium plant response rating [12]: 70; Kochia plant response rating (0 to 100 scale) [13]: 80; Kochia plant response rating [13]: 70; Pigweed plant response rating (0 to 100 scale) [14]: 90; Pigweed plant response rating [14]: 80; Ragweed plant response rating (0 to 100 scale) [15]: 80; Ragweed plant response rating [15]: 80; Wheat plant response rating (0 to 100 scale) [16]: 0; Wheat plant response rating [16]: 0; Plant response rating, Barnyardgrass (0 to 100 scale, 0 is no effect, 100 is complete control) [17]: 0; Plant response rating, Ducksalad (0 to 100 scale, 0 is no effect, 100 is complete control) [18]: 0; Plant response rating, Rice (0 to 100 scale, 0 is no effect, 100 is complete control) [19]: 0; Plant response rating, Sedge, Umbrella (0 to 100 scale, 0 is no effect, 100 is complete control) [20]: 0
2 | CO/N=C(\c1ccccc1C(C)C)c1c(O)c(C)nn(C)c1=O [Compound 94] | 50 | 90 | 10 | 50 | 20 | 60 | 0 | 10 | 10 | 70 | 10 | 70 | 80 | 30 | 30 | 20 | 80 | 20 | 20 | 10 | Foxtail, Giant plant response rating (0 to 100 scale) [11]: 70; Foxtail, Giant plant response rating [11]: 40; Galium plant response rating (0 to 100 scale) [12]: 70; Galium plant response rating [12]: 60; Kochia plant response rating (0 to 100 scale) [13]: 60; Kochia plant response rating [13]: 20; Pigweed plant response rating (0 to 100 scale) [14]: 80; Pigweed plant response rating [14]: 50; Ragweed plant response rating (0 to 100 scale) [15]: 70; Ragweed plant response rating [15]: 50; Wheat plant response rating (0 to 100 scale) [16]: 40; Wheat plant response rating [16]: 0; Plant response rating, Barnyardgrass (0 to 100 scale, 0 is no effect, 100 is complete control) [17]: 0; Plant response rating, Ducksalad (0 to 100 scale, 0 is no effect, 100 is complete control) [18]: 0; Plant response rating, Rice (0 to 100 scale, 0 is no effect, 100 is complete control) [19]: 0; Plant response rating, Sedge, Umbrella (0 to 100 scale, 0 is no effect, 100 is complete control) [20]: 0
3 | CON=C(c1cccc(F)c1)c1c(O)c(C)nn(C)c1=O [Compound 64] | 30 | 60 | 0 | 0 | 0 | 0 | 0 | 0 | 0 | 10 | 10 | 20 | 70 | 50 | 20 | 20 | 20 | 0 | 0 | 0 | Foxtail, Giant plant response rating (0 to 100 scale) [11]: 10; Foxtail, Giant plant response rating [11]: 0; Galium plant response rating (0 to 100 scale) [12]: 80; Galium plant response rating [12]: 70; Kochia plant response rating (0 to 100 scale) [13]: 60; Kochia plant response rating [13]: 20; Pigweed plant response rating (0 to 100 scale) [14]: 40; Pigweed plant response rating [14]: 20; Ragweed plant response rating (0 to 100 scale) [15]: 50; Ragweed plant response rating [15]: 20; Wheat plant response rating (0 to 100 scale) [16]: 0; Wheat plant response rating [16]: 0; Plant response rating, Barnyardgrass (0 to 100 scale, 0 is no effect, 100 is complete control) [17]: 0; Plant response rating, Ducksalad (0 to 100 scale, 0 is no effect, 100 is complete control) [18]: 0; Plant response rating, Rice (0 to 100 scale, 0 is no effect, 100 is complete control) [19]: 0; Plant response rating, Sedge, Umbrella (0 to 100 scale, 0 is no effect, 100 is complete control) [20]: 0
